From ChEMBL document CHEMBL3091429, “Structure-activity relationships of retro-dihydrochalcones isolated from Tacca sp” (J Nat Prod, 2013)
Activity calls are given as the source filed them. No cut-off for these calls is given here.

Columns and labels:
Tubulin (Sus scrofa) = Tubulin (Sus scrofa) (UniProt P02554+P02550); experiment: Inhibition of purified porcine tubulin polymerization 100 uM by spectrophotometry; assay type: protein assay
PC-3 = experiment: Antiproliferative activity against human PC3 cells by SRB assay; assay type: functional, cell-based
A549 = experiment: Antiproliferative activity against human A549 cells by SRB assay; assay type: functional, cell-based
HeLa = experiment: Antiproliferative activity against human HeLa cells by SRB assay; assay type: functional, cell-based

Chain of Tubulin (Sus scrofa) (P02550 whole entry, looked up): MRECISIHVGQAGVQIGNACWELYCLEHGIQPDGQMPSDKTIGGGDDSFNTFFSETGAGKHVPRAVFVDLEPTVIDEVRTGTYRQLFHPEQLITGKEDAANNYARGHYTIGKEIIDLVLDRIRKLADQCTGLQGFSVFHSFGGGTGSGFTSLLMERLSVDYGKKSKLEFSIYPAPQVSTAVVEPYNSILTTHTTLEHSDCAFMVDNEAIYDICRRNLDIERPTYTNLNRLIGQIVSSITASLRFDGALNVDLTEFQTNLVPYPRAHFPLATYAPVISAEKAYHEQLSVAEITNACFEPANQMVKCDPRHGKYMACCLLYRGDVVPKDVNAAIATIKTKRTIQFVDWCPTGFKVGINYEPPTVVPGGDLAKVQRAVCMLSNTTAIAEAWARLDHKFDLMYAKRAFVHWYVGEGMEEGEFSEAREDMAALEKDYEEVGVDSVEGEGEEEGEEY
Chain of Tubulin (Sus scrofa) (P02554 whole entry, looked up): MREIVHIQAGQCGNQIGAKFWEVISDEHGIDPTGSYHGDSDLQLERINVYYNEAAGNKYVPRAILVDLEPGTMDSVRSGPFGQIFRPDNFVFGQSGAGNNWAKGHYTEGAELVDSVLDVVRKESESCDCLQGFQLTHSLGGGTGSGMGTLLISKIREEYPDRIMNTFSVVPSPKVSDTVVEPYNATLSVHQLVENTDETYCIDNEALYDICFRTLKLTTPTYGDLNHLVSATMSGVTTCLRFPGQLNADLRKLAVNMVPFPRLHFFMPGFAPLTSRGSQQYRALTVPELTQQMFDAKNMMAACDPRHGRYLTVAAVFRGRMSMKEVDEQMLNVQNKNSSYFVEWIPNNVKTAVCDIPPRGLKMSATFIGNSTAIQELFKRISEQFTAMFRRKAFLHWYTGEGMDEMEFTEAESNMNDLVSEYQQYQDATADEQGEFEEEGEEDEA

Question: For `COC1=CC(=O)C(CCC(=O)c2ccc(OC)c(OC)c2)=C(OC)C1=O`, which inhibition (Tubulin (Sus scrofa)) is on record?
Answer: The inhibition was “inactive”.

Question: `COc1cc(OC)c(CCC(=O)c2ccc(OC)c(O)c2)c(OC)c1` was tested. Which inhibition (Tubulin (Sus scrofa)) did it give?
Answer: The inhibition was “Active”.

Question: Which IC50 (PC-3) does the source give for `COC1=CC(=O)C(CCC(=O)c2ccc3c(c2)OCO3)=C(OC)C1=O` here?
Answer: The IC50 was 5 µM.

Question: What about the IC50 (A549) of the same molecule?
Answer: Its IC50 is 8.3 µM.

Question: What about the IC50 (HeLa) of the same molecule?
Answer: Its IC50 is 8.8 µM.

Question: What about the inhibition (Tubulin (Sus scrofa)) of the same molecule?
Answer: Its inhibition is 40%.

Question: Which results are given for `COc1ccc(C(=O)CCc2c(OC)cc(OC)c(OC)c2OC)cc1OC`?
Answer: IC50 (PC-3): > 50 µM; IC50 (A549): > 50 µM; IC50 (HeLa): > 50 µM; inhibition (Tubulin (Sus scrofa)): inactive

Question: Which results are given for `COc1cc(OC)c(CCC(=O)c2ccc(O)c(OC)c2)c(OC)c1`?
Answer: IC50 (PC-3): > 50 µM; IC50 (A549): 40.3 µM; IC50 (HeLa): 28.9 µM; inhibition (Tubulin (Sus scrofa)): 10%

Question: With `COc1cc(O)c(CCC(=O)c2ccc(O)c(OC)c2)c(OC)c1` as the molecule, how does the IC50 (PC-3) read?
Answer: Its IC50 is over 50 µM.

Question: And the IC50 (A549)?
Answer: The IC50 was over 50 µM.

Question: And the IC50 (HeLa)?
Answer: Its IC50 is over 50 µM.

Question: And the inhibition (Tubulin (Sus scrofa))?
Answer: The inhibition was “Active”.

Question: Which IC50 (PC-3) does the source give for `COc1cc(OC)c(CCC(O)c2ccc3c(c2)OCO3)c(OC)c1` (configuration not stated) here?
Answer: Its IC50 is over 50 µM.

Question: And the IC50 (A549)?
Answer: Its IC50 is over 50 µM.

Question: And the IC50 (HeLa)?
Answer: Its IC50 is over 50 µM.

Question: And the inhibition (Tubulin (Sus scrofa))?
Answer: Its inhibition is “Active”.
